Patent publication US10308682B2, “Inhibition of tumor growth with aggregates of small molecules” (BRANDEIS UNIVERSITY, priority 2013, dated 2019)

Key:
T98G = assay: Cell viability assay (MTT), T98G; assay type: cell-based
Description: (§1) Cells in exponential growth phase were seeded in a 96 well plate at a concentration of 50,000 cell/well. The cells were allowed to attach to the wells for 24 h at 37° C., 5% CO2, then the culture medium was removed and 100 μL new culture medium containing 1 at gradient concentrations was placed into each well. After culturing at 37° C., 5% CO2 for desired time, each well was added by 10 μL of 5 mg/mL MTT 43-(4,5-Dimethylthiazol-2-yl)-2,5-diphenyltetrazolium bromide), and the plated cells were incubate at dark for 4 h. 100 μL 10% SDS with 0.01 M HCl was added to each well to stop the reduction reaction and to dissolve the purple. After incubation of the cells at 37° C. for overnight, the viability is measured. Data represent the mean±standard deviation of three independent experiments.
(§2) The estimation of the threshold concentration of aggregation (320-340 μM) for 1 allows us to examine the cytotoxicity of 1 in monomer and molecular aggregate forms. We first tested the cytotoxicity of 1 towards HeLa cells, the most widely studied cancer cell line, below and above the threshold concentration.

Capan-2 = assay: Cell viability assay (MTT), Capan-2; assay type: cell-based
Description: as §1, §2

PC12 cells [1] = assay: Intracellular concentration of 1 in PC12 cells by LC-MS; assay type: cell-based; settings: 12 h at 37° C.
Description: FIG. 10 depicts the long term cytotoxicity of 1 on PC12 cells. Related to FIG. 2. (a) MTT viability test of cell incubated with gradient concentration of 1 for up to 7 days without changing medium. Data are presented as mean±SD of three independent experiments. (b) Intracellular concentration of 1 in PC12 cells treated with 1 for 12 h at 37° C. measured by LC-MS (left bar=400 μM; right bar=300 μM). (c) Cells were subcultured and re-seeded with new medium containing the same concentration of 1 (0 for control group and 400 μM for test group) every 4 days. Data are presented as mean±SD of three independent experiments.
FIG. 21 depicts the intracellular concentration of 1 in PC12 and T98G cells after incubation with 400 μM of 1 for 12 h. Cells in exponential growth phase were seeded in a 10 cm petri dish at 10,000 cell/mL. The cells were allowed to attach for 24 h at 37° C., 5% CO2. The culture medium was removed, and new culture medium containing 1 at 0 or 400 μM was added. After 12 h of incubation, cells were washed with PBS buffer 3 times and collected by cell scraper with 1 mL of PBS buffer. The cell suspension was centrifuged at 600 g for 5 min to obtain a cell pellet. 10 μL of the cell pellet were lysed in 200 μL of water and 200 μL of MeOH. […] The concentration of 1 in the lysate was measured by LC-MS.

HeLa cells = assay: FITC annexin V / PI staining of HeLa cells; assay type: cell-based; settings: 400 μM, 36 h
Text: To determine the process of cell death induced by the aggregates of 1, we used FITC conjugated annexin V and propidium iodide (PI) to stain the cells (FIG. 3b). Being membrane impermeable, PI discriminates viable cells from late apoptotic or necrotic cells, and FITC conjugated annexin V binds to plasma membrane of apoptotic and necrotic cells as the former ones have extracellular exposed phosphatidylserine and the latter ones lose membrane integrity.

microtubules = molecular target: T1, microtubules (Sus scrofa, UniProt P02550+P02554); assay: Addition of 1 to fully assembled microtubules; assay type: biochemical; settings: final concentration 200 to 500 μM, added after 60 min polymerization
T1 construct: purchased Cytoskeleton
T1 sequence (P02550 whole entry): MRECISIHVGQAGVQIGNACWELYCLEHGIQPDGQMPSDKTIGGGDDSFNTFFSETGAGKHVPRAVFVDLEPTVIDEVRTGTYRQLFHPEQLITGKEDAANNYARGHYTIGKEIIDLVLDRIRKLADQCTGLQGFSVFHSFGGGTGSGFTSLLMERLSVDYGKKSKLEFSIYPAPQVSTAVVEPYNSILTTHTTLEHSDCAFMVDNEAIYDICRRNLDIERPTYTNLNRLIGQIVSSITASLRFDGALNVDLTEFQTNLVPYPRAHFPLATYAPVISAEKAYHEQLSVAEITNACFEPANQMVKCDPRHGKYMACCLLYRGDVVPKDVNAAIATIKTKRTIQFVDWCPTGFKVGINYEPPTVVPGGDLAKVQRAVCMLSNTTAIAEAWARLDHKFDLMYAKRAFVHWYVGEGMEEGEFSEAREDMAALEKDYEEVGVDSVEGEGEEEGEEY
T1 sequence (P02554 whole entry): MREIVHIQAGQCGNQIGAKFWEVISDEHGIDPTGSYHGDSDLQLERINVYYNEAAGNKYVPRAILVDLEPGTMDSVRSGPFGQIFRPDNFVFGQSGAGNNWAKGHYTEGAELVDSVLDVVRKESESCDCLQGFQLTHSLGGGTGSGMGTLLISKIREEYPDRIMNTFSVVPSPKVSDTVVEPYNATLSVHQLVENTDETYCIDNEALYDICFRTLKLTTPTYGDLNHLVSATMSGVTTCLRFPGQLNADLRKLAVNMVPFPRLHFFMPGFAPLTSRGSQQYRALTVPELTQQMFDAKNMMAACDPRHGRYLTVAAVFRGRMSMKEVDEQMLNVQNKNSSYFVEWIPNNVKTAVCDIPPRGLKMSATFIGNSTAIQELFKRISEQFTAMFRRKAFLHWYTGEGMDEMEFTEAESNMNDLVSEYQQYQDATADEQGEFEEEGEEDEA
Text: Tubulin polymerization assay in the presence of 1. In vitro tubulin polymerization reactions in (a) as prepared or (c) filtered reaction cocktail without 1 (control) or with different concentrations of 1. The amount of microtubule is in proportion to optical density at 340 nm. The calculated polymerization rate (Vmax) and the final tubulin polymer mass vs concentrations of 1 from tubulin polymerization in (b) as prepared or (d) filtered reaction cocktail. Negative stained TEM images of molecular aggregates of 1 binding with tubulin. Buffer (control) or 1 (final concentration at 200 to 500 μM) was introduced into reaction cocktail containing fully assembled microtubule (after 60 min of polymerization). The amount of microtubule remain unchanged after 30 min. (e) Molecular aggregates of 1 (400 μM) incubated with tubulins heterodimers in general tubulin buffer. Scale bar=40 nm. White arrows point at tubulin clusters on the molecular aggregates of 1. […]
Microtubules are highly dynamic, growing and shrinking at a constant rate. To determine whether molecular aggregates of 1 achieve the inhibition of microtubule formation through preventing microtubule growth or accelerating microtubule shrinkage, we applied 1 to the polymerization mixture after most of tubulin heterodimers already formed microtubules (60 min of pre-incubation) and monitored the change of microtubules.

PC12 cells [2] = assay: Tubulin staining (tubulin tracker), PC12 cells; assay type: cell-based; settings: 400 μM, 24 h
[3] = Influence of surfactant Triton X-100 on hydrogel of 1; assay type: physicochemical; settings: 1 at 10 mM
Description: FIG. 14 depicts the influence of a surfactant on self-assembly of 1. Triton X-100 was mixed with 1 (10 mM) before and after hydrogel formation. The hydrogel of 1 can tolerate up to 0.1% Triton X-100. Treated with 0.1% Triton X-100, the fibrillar aggregates of 1 tend to cross-link with each other instead of randomly dispersing, but the width of fibrillar aggregates remains unchanged.

For O=C(Cc1ccc2ccccc2c1)N[C@@H](Cc1ccccc1)C(=O)N[C@@H](Cc1ccccc1)C(=O)O [Compound 1], the “cytotoxicity towards T98G” value (T98G) was “decreases of cell viabilities only observed at 400 and 500 μM”, the “cytotoxicity towards Capan-2” value (Capan-2) was “decreases of cell viabilities only observed at 400 and 500 μM” and the “accumulation of 1 in PC12 cells versus HeLa cells” value (PC12 cells [1]) was “much less amount of 1 than HeLa cells do”. The “process of cell death” value (HeLa cells) was “induce apoptosis”, the “loss of preformed microtubules” value (microtubules) was “little notable loss of microtubules” and the microtubule morphology (PC12 cells [2]) was “intact microtubule networks”. The “Triton X-100 tolerated by the hydrogel” value [3] was “up to 0.1 % Triton X-100”.
